Assay results: patent publication US20090087420A1, “STABLE SOLUTION OF REDUCED COENZYME Q” (Kaneka Corporation, priority 2001, published 2009)

Test: Oxidation stability of reduced coenzyme Q10 solubilized with a surfactant during air storage
Format: physicochemical
Settings: for period of stable storage: 0.05% by weight reduced coenzyme Q10, air storage at 23° C. (FIG. 4)
Procedure: A solution of reduced coenzyme Q10 using a surfactant was prepared by the method described below, and the oxidation stability under storage was evaluated. As the surfactant, Polysolvate 80 (Tween 80) or polyoxyethylene hardened castor oil (HCO 60) was used, and an aqueous solution of 1% by weight or 0.1% by weight of the surfactant was prepared. Then, the reduced coenzyme Q10 was added to the aqueous solution so that the final concentration of the solution was 0.05% by weight. […] In FIG. 4, each value is an average with n=2. […] The results of this test indicate that with a surfactant concentration of 0.1% by weight, the reduced coenzyme Q10 can be stably stored at 23° C. for about 1 month. […] Therefore, when preparing a solution or emulsion with a surfactant, the concentration of the surfactant used is decreased to prepare a solution which can be stored for a longer period of time. A solution or emulsion with 1% by weight or more of a surfactant can be used under conditions in which the solution or emulsion is prepared before use, or the solution or emulsion is stored for a short period or stored in an airtight condition such as a completely anaerobic condition.

For `COc1c(O)c(C)c(C/C=C(\C)CC/C=C(\C)CC/C=C(\C)CC/C=C(\C)CC/C=C(\C)CC/C=C(\C)CC/C=C(\C)CC/C=C(\C)CC/C=C(\C)CCC=C(C)C)c(O)c1OC` [reduced coenzyme Q10], the “period of stable storage” value (surfactant (Tween 80 or HCO 60) concentration 0.1% by weight) was “about 1 month”, the “period of stable storage” value (surfactant (Tween 80 or HCO 60) concentration 1% by weight) was 1 week and the “oxidation after the stable period (in words)” value (surfactant concentration 1% by weight, after 1 week of air storage at 23° C.) was “rapidly oxidized”.
